# Values quoted from earlier work as cited in patent US20240315301A1, “Composition for Improving Vision” (ALGAE HEALTH SCIENCES CO., LTD., priority 2021, published 2024).
# Conditions: fold more than vitamin E
smiles,measurement,value
"CC1=C(/C=C/C(C)=C/C=C/C(C)=C/C=C/C=C(C)/C=C/C=C(C)/C=C/C2=C(C)C(=O)C(O)CC2(C)C)C(C)(C)CC(O)C1=O (stereo not drawn) [Astaxanthin, 3, 3′-dihydroxy-β, β-carotene-4, 4′-dione]",antioxidant activity relative to vitamin E (VE),1000 times
